The source made the active and inactive calls. Bounds are passed on as bounds.

For assay [1], the system named is H9c2. As to the kind of experiment: cells. It is filed as functional, cell-based. The settings on record: Rattus norvegicus, H9c2, Myocardium.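 Also: confirmatory concentration-response retest of ultra-high-throughput screening hits for modulation of myocardial damage; cell death induced by hydrogen peroxide oxidative stress; compound pretreatment for 60 min then peroxide exposure for 2 h; potency is for protecting the cells against peroxide damage rather than for killing them.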
Assay [2] has as its target ADP-ribosylation factor GTPase-activating protein 1 (Rattus norvegicus, UniProt Q62848). As to the kind of experiment: Fluorescence polarization-based biochemical high throughput dose response screening assay to identify inhibitors of ADP-ribosylation factor GTPase activating protein 1 (ARFGAP1). The class given is functional. For orientation: In fluorescence polarisation assays a small probe gives low polarisation when free and higher when bound to something large.

Assay [3] can be described thus: Counterscreen for inhibitors of Trypanosoma brucei methionyl tRNA synthetase (MetRS): Luminescence-based cell-based high throughput dose response assay to identify compounds that are cytotoxic to Jurkat human T lymphocyte cells. The class given is functional. Background: Counterscreens check selectivity or assay interference.
In assay [4] the target is T1, Aminopeptidase N (Plasmodium falciparum FcB1/Columbia, UniProt O96935).
T1 sequence (O96935 whole entry): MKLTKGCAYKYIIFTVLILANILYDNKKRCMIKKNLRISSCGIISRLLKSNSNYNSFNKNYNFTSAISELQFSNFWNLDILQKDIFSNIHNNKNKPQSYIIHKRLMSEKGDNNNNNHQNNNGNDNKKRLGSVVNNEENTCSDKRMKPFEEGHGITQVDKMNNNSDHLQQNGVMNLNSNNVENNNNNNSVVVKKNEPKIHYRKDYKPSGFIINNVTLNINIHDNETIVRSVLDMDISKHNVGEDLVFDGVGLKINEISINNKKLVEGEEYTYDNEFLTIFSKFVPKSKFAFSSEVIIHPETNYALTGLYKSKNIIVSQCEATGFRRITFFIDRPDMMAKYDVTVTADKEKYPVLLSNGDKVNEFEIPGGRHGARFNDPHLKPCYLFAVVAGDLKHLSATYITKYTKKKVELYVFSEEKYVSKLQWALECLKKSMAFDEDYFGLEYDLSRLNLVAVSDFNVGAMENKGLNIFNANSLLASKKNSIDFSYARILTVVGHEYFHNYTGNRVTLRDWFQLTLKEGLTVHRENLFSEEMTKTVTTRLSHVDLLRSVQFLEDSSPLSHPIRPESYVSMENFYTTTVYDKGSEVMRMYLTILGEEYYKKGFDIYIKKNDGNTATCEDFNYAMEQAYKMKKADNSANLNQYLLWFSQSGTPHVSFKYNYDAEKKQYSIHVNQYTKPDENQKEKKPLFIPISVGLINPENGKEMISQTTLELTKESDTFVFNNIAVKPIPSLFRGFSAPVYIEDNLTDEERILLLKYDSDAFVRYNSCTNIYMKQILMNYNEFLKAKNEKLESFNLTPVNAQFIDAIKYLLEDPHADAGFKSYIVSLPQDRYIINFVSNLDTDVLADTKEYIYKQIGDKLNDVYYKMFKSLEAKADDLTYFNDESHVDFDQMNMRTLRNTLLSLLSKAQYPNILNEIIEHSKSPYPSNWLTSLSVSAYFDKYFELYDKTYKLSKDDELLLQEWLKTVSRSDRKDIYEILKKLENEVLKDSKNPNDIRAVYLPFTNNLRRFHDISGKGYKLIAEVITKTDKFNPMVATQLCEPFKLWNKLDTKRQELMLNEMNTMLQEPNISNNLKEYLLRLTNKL
As to the kind of experiment: P. falciparum M1AAP inhibitors, biochemical, fluorogenic H-Leu-NHMec substrate, 1536-well (AID 1445). The arrangement: species or system Plasmodium falciparum 3D7, 3D7.

The target of assay [5] is Genome polyprotein (dengue virus type 2, UniProt P29990). The experiment in a line: Dengue-2 NS5 methyltransferase inhibitors, primary screen, biochemical, confirmation dose response (AID 588689). The class given is functional.
Assay [6] deals with T2, Probable nicotinate-nucleotide adenylyltransferase (Staphylococcus aureus (strain N315), UniProt P65502). The class given is functional, Staphylococcus aureus subsp. aureus N315.
For assay [7], the target named is T2, Probable nicotinate-nucleotide adenylyltransferase. The class given is functional, Staphylococcus aureus subsp. aureus N315. The settings on record: read-out: IC50_Mean.
In assay [8] the target is T3, Sentrin-specific protease 8 (Homo sapiens, UniProt Q96LD8).
T3 sequence (Q96LD8 whole entry): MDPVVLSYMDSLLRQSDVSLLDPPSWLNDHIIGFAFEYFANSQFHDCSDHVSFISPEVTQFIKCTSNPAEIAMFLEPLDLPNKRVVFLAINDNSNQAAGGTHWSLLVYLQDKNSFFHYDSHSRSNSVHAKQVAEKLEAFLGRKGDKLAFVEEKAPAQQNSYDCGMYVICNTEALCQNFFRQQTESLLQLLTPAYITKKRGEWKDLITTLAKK
The class given is functional.

Assay [9] deals with T3, Sentrin-specific protease 8. It is filed as functional. The source holds these as a separate data set.
The target in assay [10] is DNA (cytosine-5)-methyltransferase 1 (Homo sapiens, UniProt P26358). As to the kind of experiment: DNMT1 methyltransferase inhibitors, confirmation, biochemical, fluorescent molecular beacon (AID 602386). The class given is functional.
Assay [11] has as its target T4, Histone-lysine N-methyltransferase NSD2 (Homo sapiens, UniProt O96028).
T4 sequence (O96028 whole entry): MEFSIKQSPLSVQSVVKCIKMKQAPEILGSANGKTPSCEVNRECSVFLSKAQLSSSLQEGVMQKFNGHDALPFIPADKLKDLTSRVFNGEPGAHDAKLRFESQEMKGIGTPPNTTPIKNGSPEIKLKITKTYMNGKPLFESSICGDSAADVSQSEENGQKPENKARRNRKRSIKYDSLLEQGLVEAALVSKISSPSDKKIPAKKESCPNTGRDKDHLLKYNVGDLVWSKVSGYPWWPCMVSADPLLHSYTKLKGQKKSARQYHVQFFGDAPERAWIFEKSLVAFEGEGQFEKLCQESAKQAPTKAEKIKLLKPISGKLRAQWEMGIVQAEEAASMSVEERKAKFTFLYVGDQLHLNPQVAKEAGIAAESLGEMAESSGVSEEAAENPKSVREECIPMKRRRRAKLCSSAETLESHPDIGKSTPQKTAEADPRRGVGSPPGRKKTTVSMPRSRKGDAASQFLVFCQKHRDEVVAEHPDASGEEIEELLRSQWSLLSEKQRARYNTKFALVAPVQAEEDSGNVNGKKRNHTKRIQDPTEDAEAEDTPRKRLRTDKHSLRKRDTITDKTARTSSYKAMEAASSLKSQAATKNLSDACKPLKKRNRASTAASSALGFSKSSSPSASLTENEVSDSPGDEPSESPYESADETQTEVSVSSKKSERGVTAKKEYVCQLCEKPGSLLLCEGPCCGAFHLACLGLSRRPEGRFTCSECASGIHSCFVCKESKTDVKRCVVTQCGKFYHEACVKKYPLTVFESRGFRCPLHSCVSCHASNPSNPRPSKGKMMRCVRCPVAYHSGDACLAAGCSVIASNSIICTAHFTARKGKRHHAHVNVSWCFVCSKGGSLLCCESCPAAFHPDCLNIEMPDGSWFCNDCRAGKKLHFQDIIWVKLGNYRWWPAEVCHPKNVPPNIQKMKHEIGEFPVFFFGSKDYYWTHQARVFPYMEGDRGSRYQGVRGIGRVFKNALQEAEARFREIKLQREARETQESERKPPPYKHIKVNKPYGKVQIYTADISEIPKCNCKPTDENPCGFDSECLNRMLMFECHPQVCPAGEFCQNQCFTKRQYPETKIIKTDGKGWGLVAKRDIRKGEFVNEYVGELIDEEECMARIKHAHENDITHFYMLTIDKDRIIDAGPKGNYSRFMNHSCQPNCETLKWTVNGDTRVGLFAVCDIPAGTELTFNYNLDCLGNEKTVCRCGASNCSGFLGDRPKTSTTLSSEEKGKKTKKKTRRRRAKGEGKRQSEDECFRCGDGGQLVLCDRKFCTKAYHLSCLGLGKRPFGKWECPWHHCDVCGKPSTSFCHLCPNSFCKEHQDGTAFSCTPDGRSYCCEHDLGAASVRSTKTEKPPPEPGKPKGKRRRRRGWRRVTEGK
It is filed as biochemical.

The target of assay [12] is Adenosylmethionine-8-amino-7-oxononanoate aminotransferase (Mycobacterium tuberculosis, UniProt P9WQ81). As to the kind of experiment: Mycobacterium tuberculosis BioA enzyme inhibitor Measured in Biochemical System Using Plate Reader - 2163-02_Inhibitor_Dose_CherryPick_Activity. It is filed as functional, Mycobacterium tuberculosis UT205.
Assay [13] has as its target T5, Endoribonuclease toxin MazF (Escherichia coli K-12, UniProt P0AE70).
T5 sequence (P0AE70 whole entry): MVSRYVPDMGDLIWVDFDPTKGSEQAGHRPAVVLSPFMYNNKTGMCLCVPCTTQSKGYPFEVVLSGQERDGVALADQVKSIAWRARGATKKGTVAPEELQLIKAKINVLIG
As to the kind of experiment: MazF toxin RNase activators, dose response, biochemical, fluorescence, single-stranded RNA substrate, uHTS hits (AID 588481). The class given is functional.

Assay [14] addresses Heat shock protein HSP 90-alpha (Homo sapiens, UniProt P07900). It is filed as functional, organism-based.
Assay [15] concerns the target T5, Endoribonuclease toxin MazF. The experiment in a line: fluorescent RNA oligo signal without MazF, dose response, counter-screen for MazEF activator project, biochemical, fluorescence, single-stranded RNase substrate (AID 588502). It is filed as functional.
Assay [16] deals with Melanocortin receptor 4 (Homo sapiens, UniProt P32245). The class given is functional, cell-based.
In assay [17] the target is Hepatocyte nuclear factor 4-alpha (Homo sapiens, UniProt P41235). It is filed as functional, cell-based.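 Also: biochemical luminescence-based dose-response counterscreen measuring inhibition of HNF4 dimerization, run alongside a screen for blockers of ABHD5–perilipin-5 interaction; split luciferase complementation of HNF4 fusion proteins in cell lysate measuring dimerization.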
The target in assay [18] is T6, DNA repair and recombination protein RAD54-like (Homo sapiens, UniProt Q92698).
T6 sequence (Q92698 whole entry): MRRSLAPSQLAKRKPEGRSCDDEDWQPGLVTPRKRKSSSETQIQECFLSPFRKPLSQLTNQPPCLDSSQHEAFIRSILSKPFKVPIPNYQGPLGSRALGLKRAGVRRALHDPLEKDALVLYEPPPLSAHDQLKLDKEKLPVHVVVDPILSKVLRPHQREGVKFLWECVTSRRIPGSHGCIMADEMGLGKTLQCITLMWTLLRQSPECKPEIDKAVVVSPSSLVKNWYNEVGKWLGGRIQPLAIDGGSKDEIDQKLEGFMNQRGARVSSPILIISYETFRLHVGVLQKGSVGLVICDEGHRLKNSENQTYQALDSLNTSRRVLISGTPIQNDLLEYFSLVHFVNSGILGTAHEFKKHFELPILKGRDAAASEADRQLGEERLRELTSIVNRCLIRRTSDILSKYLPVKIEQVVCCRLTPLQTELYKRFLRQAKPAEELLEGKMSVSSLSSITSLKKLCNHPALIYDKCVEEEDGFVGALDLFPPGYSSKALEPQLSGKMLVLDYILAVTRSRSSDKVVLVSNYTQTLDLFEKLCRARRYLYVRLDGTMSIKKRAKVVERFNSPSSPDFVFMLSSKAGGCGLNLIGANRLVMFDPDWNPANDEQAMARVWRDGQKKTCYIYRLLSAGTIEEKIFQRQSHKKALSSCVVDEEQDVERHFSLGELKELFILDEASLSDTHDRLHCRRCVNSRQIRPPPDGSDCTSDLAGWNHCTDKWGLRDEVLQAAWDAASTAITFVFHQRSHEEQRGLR
As to the kind of experiment: inhibitors of human RAD54 branch migration, confirmation, biochemical, fluorescence, cherry-picked samples, dose series (AID 651657). The class given is functional.
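For IC50 Mean in this document: confirmatory dose-response retesting of NadD inhibitor hits first found in an ultra-high-throughput screen.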

T2 sequence (P65502 whole entry): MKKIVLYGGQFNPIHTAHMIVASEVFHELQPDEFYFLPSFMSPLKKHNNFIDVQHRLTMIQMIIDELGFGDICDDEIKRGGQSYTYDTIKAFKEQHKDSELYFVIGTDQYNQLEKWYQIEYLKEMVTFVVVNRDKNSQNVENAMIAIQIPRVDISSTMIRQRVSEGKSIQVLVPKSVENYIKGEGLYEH
Sequence of Hepatocyte nuclear factor 4-alpha (P41235 whole entry, the tested form may be a part): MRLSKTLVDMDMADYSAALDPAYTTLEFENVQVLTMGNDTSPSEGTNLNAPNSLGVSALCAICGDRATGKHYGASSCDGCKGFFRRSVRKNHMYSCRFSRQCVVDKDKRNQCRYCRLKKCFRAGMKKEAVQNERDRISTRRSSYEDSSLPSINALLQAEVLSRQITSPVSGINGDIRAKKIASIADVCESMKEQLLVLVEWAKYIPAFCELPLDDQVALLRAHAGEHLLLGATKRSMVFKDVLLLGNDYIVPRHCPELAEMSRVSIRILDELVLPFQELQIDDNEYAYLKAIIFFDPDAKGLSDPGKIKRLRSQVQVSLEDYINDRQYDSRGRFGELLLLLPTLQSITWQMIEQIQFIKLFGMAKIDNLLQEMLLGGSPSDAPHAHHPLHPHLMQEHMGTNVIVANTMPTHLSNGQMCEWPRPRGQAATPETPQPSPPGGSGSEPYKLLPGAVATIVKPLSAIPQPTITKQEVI
Sequence of Genome polyprotein (P29990 2492-3391 limits assumed): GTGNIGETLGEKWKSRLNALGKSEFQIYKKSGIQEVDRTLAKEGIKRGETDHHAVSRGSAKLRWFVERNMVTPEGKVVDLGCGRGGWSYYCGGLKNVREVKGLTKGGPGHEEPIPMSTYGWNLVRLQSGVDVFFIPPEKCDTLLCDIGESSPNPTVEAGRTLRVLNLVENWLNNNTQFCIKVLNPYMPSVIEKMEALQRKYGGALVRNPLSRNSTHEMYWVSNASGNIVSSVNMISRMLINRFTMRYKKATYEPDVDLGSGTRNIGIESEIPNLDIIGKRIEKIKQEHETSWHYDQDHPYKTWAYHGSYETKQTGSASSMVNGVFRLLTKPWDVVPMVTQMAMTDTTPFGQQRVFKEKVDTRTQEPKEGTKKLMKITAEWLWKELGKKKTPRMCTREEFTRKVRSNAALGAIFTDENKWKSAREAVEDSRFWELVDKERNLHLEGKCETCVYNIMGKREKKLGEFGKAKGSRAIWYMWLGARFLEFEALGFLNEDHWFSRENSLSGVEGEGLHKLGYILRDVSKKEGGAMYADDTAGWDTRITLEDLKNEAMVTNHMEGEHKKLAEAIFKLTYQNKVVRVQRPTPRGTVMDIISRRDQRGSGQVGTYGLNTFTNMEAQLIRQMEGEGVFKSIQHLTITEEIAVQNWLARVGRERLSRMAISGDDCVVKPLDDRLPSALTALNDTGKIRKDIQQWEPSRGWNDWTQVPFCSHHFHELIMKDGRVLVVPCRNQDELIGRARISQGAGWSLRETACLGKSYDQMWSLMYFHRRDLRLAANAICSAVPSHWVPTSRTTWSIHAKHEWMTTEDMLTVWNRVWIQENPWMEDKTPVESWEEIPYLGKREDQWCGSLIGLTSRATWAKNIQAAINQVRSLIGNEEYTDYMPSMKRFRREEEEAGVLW
Sequence of ADP-ribosylation factor GTPase-activating protein 1 (Q62848 whole entry): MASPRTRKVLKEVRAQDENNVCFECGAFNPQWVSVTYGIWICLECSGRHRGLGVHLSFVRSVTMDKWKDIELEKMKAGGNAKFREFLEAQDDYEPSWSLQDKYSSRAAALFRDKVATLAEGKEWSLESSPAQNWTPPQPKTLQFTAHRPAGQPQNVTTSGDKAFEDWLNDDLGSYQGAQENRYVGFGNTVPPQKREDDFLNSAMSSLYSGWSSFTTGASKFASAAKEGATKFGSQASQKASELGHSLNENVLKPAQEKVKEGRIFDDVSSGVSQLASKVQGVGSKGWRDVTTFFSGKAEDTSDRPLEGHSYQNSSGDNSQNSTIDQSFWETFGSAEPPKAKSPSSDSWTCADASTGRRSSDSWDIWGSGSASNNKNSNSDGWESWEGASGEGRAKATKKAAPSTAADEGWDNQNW
Sequence of Adenosylmethionine-8-amino-7-oxononanoate aminotransferase (P9WQ81 whole entry): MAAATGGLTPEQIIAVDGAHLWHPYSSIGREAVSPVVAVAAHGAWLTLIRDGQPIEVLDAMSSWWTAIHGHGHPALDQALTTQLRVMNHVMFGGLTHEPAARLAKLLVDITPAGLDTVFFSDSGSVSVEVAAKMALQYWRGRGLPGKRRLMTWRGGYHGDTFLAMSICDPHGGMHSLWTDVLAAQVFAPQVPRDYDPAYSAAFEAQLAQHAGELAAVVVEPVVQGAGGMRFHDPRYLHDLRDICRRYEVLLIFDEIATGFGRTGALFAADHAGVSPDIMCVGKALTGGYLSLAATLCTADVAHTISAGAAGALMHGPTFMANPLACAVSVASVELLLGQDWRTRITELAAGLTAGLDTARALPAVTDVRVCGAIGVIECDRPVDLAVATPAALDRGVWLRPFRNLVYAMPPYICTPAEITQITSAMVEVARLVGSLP
Sequence of Melanocortin receptor 4 (P32245 whole entry, the tested form may be a part): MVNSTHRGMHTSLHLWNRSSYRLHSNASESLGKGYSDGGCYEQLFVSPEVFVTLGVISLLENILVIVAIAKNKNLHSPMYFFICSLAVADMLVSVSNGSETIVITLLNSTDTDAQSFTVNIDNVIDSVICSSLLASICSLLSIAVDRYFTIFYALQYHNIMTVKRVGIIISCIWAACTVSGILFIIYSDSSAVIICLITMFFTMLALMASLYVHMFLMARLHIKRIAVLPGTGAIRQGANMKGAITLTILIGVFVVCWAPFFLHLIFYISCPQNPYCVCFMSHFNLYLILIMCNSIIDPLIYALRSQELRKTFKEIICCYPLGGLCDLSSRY
Sequence of DNA (cytosine-5)-methyltransferase 1 (P26358 whole entry): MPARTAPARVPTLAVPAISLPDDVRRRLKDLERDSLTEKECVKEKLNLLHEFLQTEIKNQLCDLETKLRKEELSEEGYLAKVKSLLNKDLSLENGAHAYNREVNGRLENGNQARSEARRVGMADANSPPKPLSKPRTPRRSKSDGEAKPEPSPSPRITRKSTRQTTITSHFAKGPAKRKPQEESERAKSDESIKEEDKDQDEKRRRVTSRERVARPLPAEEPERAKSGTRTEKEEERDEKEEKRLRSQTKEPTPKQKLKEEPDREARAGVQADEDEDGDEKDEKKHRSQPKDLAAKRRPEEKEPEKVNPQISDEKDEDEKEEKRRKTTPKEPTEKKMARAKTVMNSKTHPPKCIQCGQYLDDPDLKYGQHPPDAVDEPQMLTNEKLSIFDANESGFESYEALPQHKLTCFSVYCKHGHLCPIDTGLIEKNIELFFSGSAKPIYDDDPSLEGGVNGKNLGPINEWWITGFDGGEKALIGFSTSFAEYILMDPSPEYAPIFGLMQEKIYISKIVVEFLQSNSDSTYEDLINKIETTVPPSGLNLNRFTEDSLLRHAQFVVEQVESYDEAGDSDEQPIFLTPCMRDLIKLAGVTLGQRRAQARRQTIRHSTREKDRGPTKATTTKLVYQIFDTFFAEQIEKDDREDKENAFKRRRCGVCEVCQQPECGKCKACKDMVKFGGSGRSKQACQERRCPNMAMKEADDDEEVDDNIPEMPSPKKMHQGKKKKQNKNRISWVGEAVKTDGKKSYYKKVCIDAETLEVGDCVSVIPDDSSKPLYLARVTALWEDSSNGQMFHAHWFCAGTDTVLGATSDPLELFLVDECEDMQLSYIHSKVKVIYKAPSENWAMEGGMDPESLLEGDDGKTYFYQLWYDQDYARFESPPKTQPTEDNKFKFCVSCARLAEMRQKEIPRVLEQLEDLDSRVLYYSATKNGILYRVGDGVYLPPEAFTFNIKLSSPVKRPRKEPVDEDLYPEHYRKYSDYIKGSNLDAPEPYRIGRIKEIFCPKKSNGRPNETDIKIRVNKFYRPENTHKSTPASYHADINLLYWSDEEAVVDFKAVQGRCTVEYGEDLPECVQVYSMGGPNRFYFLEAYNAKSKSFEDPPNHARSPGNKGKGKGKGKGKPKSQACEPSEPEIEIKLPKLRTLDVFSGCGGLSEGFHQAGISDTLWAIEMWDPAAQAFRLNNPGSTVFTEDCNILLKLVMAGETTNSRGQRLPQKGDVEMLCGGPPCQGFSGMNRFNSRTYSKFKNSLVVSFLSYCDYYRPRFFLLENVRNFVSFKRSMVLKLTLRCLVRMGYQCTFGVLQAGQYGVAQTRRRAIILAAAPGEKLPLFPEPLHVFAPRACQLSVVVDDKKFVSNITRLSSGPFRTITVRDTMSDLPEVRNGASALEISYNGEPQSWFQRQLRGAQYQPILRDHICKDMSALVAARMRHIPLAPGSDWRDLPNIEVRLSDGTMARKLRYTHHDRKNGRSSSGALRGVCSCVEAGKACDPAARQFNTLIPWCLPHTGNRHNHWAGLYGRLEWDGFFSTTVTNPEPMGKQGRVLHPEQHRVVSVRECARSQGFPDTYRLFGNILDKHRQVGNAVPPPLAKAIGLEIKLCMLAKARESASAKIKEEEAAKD

As for `COC(=O)c1cccc(Nc2nc(-c3cccnc3)nc3ccccc23)c1`, the IC50 is 4.96 µM (active) in assay [1] and 38.3 µM (inactive) in assay [2].

On to `Cc1cccc(NS(=O)(=O)c2ccc3[nH]c(-c4ccccc4)nc3c2)c1C`, for which the IC50 in assay [3] was 25.1 µM (inactive).

`CCCOc1ccc(C(=O)N/N=C/c2ccc(-c3ccc(S(=O)(=O)Nc4ncccn4)cc3)o2)cc1`: the IC50 in assay [4] is 26.1 µM (active); in assay [5], > 100 µM (active); in [6], 6.45 µM (active); in [7], 31 µM (active).

For the molecule `O=C(c1ccccc1)[C@@H]1[C@@H](C(=O)c2ccc(F)cc2)[C@@]2(C(=O)Nc3ccccc32)[C@H]2c3ccccc3C=CN12`, the IC50 in assay [8] was 12.1 µM (active); in [9] it was 1.21 µM (active).

Consider `CC1=C/C(=C\c2ccc(Br)o2)C(=O)O1`, for which, in assay [10], the IC50 is 4.99 µM (active). In addition, the AC50 (usually the midpoint of the concentration-response curve, whichever way the signal moves) in assay [11] was 4.71 µM (active).

Consider `Cc1ccc(-c2nn(-c3ccccc3)cc2/C=C/C(=O)Nc2nccs2)cc1`, for which the IC50 in [2] was 20.3 µM (inactive).

`Cc1cc(C(=O)NC2CC(C)(C)Cc3c2cnn3-c2cccc(F)c2)nn1C` (stereo unspecified): the half-maximal activity concentration (AC50) in [12] is 2.72 µM (active).

Regarding `COc1ccc2oc(=O)c(-c3csc(Nc4cccc(O)c4)n3)cc2c1`, the results for the EC50 in [13], in [15] and in assay [16] were > 99 µM (inactive), > 99 µM (inactive) and > 89.2 µM (inactive), respectively. In [14], the concentration at half-maximal activity (AC50) is 7.16 µM (active). Moreover, the results for the IC50 in [6] and in [7] were 19.2 µM (active) and 29 µM (active), respectively.

As to `O=C1CC(Nc2ccc([N+](=O)[O-])cc2)=NN1c1c(Cl)cc(Cl)cc1Cl`, the IC50 was 48.4 µM (active) in assay [5], 12.3 µM (active) in assay [8] and 16 µM (active) in [9].

On to `Cc1cccc(C)c1NC(=O)C(c1ccc(C#N)cc1)n1c(=O)c(-c2ccco2)nc2ccccc21` (stereo unspecified), for which the IC50 in assay [17] was 1.86 µM (active).

For the molecule `CN1CCN(c2[nH]cnc3c4cc(F)ccc4nc2-3)CC1`, the values for the AC50 in assay [12] and in assay [18] were 2.8 µM (active) and 28.8 µM (active), respectively.

For `C=C1C(=O)O[C@H]2C[C@H]1[C@@H](OC(C)=O)C/C(C)=C/CC/C(C)=C\CC[C@]2(C)O`, in assay [17], the IC50 was 3.21 µM (active).

(Values after ChEMBL document CHEMBL1201862, “PubChem BioAssay data set” (2004).)
